The values below come from US8247532B2, “Deuterated hepatitis C protease inhibitors” (Vertex Pharmaceuticals Incorporated, priority 2006, dated 2012).

Data set [1] is classed as in vitro ADME. The following applies: human. As for the experimental part: (§1) The epimerization rate was measured according to the following assay. Specifically, 100 μL medium (buffer, rat plasma, dog plasma, or human plasma) was added into a 96-well deep plate. To the plasma was then added 10 μL acetonitrile solution containing a test compound (1S,3aR,6aS)-2-((S)-2-((S)-2-cyclohexyl-2-(pyrazine-2-carboxamido)acetamido)-3,3-dimethylbutanoyl)-N—((S)-1-(cyclopropylamino)-1,2-dioxo-3-deutero-hexan-3-yl)octahydrocyclopenta[c]pyrrole-1-carboxamide (at 1 uM or 10 uM) and 1200 μL ethyl acetate into the 96 deep-well plate (2 mL) by using a TomTec liquid handling workstation (Hamden, Conn., USA). The plate was then covered tightly and shaken with a vortex for 20 minutes before it was centrifuged at 3000 rpm for 10 minutes. After centrifuge, 900 μL of the supernatant was transferred to a new V-shape 96 deep-well plate using TomTec, and then dried under nitrogen gas (flow rate of 60 L/min) at 25° C. for about 30 minutes. The residue was reconstituted with 100 μL ethyl acetate, and the solution was again transferred into the glass inserts in the 96-well plate. 20 uL of the reconstituted solution was injected into LC-MS/MS to determine the amount of the epimers. The LC-MS/MS spectrometer used a ChiralPak AD Column (4.6×150 mm, 10 μm), a mixture of isopropanol and n-heptane (10:90, 50:50, or 90:10) as the mobile phase, and isopropanol as the washing solvent. […]

Data set [2] can be described thus: Epimerization rate assay in buffer. The data set is classed as physicochemical. The following applies: 1 uM and 10 uM. As to the method: as §1

With `[2H][C@@](CCC)(NC(=O)[C@@H]1[C@H]2CCC[C@H]2CN1C(=O)[C@@H](NC(=O)[C@@H](NC(=O)c1cnccn1)C1CCCCC1)C(C)(C)C)C(=O)C(=O)NC1CC1` [deuterated compound, (1S,3aR,6aS)-2-((S)-2-((S)-2-cyclohexyl-2-(pyrazine-2-carboxamido)acetamido)-3,3-dimethylbutanoyl)-N—((S)-1-(cyclopropylamino)-1,2-dioxo-3-deutero-hexan-3-yl)octahydrocyclopenta[c]pyrrole-1-carboxamide], the “time course (shape) of epimerization” value in data set [1] is listed as “linear rate for 180 minutes”. The “epimerization rate compared with non-deuterated form” value in data set [2] is on record as “slower epimerization rate”.
